Peptide text beside a SMILES is read from it.
How the values were obtained:
[1] = tested on: blood pressure responses to BK; type: in vivo; conditions: anaesthetized rat, dose response curve n=10
BK2 receptor [2] = molecular target: T1, BK2 receptor (Cavia porcellus, UniProt O70526); experiment: guinea-pig ileum (GPI) in vitro, antagonism of BK
T1 construct: tested for activity on guinea pig ileum in vitro on the standard tissue bath/strain gauge system; from tissue; host or cells: guinea pig ileum
T1 sequence (O70526 1-372): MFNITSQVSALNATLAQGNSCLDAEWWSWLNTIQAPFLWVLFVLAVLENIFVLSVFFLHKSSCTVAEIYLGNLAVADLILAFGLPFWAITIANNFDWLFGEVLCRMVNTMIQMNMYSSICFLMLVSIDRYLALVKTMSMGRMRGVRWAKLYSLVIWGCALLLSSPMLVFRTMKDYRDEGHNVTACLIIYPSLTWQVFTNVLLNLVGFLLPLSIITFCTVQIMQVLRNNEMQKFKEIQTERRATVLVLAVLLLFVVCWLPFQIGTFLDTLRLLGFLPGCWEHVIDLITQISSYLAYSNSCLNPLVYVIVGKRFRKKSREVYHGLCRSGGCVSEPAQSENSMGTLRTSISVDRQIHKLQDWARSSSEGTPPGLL
Protocol: (§1) Thus, in vitro studies were performed on standard assay systems, namely, guinea-pig ileum (GPI), rat uterus (RU) and rabbit jugular vein (RJV). […] The potency of each compound was assessed as a pA2 value according to the method of Arunlakshana & Schild, Br. J. Pharmacol. Chemother., 14:48-58 (1959). The pA2 can be defined as the negative logarithm of the molar concentration of the antagonist in the presence of which the potency of the agonist is reduced two-fold, i.e., twice the amount of agonist is required to produce a given response in the presence of, than in the absence of, the antagonist. A high potency of antagonism is indicated by a high pA2 value. i.e., a low concentration of antagonist is effective.
The percentage recovery (% Rec) was also determined for compounds with respect to each assay.
The Cys-modified monomers and the resultant dimers were tested for activity on guinea pig ileum in vitro on the standard tissue bath/strain gauge system as before.

BK2 -receptor = molecular target: T2, BK2 -receptor (Rattus norvegicus, UniProt P25023); experiment: rat uterus (RU) in vitro, antagonism of BK; conditions: percentage recovery after washing
T2 construct: guinea-pig ileum (GPI), rat uterus (RU) and rabbit jugular vein (RJV); from tissue; host or cells: rat uterus
T2 sequence (P25023 1-396): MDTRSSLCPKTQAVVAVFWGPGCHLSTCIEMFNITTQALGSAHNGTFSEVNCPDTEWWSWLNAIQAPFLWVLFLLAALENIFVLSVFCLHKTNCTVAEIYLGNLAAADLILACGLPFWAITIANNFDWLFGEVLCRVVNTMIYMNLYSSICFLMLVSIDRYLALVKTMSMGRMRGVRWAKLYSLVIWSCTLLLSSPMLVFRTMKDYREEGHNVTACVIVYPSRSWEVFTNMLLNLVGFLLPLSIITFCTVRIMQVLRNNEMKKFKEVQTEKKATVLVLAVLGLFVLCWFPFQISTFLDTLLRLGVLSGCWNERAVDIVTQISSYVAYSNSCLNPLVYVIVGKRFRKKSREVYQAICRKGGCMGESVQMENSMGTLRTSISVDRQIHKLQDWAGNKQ

BK2 receptor [3] = molecular target: T3, BK2 receptor (Oryctolagus cuniculus, UniProt Q28642); experiment: rabbit jugular vein (RJV) in vitro, antagonism of BK; conditions: percentage recovery after washing
T3 construct: from tissue; host or cells: whole animal (rabbit, LPS-pretreated), blood pressure response
T3 sequence (Q28642 1-367): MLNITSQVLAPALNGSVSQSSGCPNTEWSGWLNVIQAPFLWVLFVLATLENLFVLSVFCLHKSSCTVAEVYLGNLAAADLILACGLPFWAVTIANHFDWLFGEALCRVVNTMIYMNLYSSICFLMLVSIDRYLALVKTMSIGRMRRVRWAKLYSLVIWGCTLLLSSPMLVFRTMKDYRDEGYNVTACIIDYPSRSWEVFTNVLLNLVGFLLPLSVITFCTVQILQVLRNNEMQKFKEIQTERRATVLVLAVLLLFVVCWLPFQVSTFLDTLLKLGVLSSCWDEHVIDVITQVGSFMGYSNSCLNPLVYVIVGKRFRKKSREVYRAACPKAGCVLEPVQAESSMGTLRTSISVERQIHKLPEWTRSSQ
Protocol: as §1
The percentage recovery (% Rec) was also determined for compounds with respect to each assay. Percentage recovery is a measure of the duration of action, the lower the percentage recovery value, the greater the duration of action of the compound.

SMILES	ED50 of BK, blood pressure [1]	pA2 guinea pig ileum (BK2 receptor [2]; against BK)	% REC GPI (BK2 receptor [2]; percentage recovery after washing)	% REC rat uterus (BK2 -receptor)	% REC RJV (BK2 receptor [3])	Kb (BK2 receptor [2]; against BK, read-out: pA2 guinea pig ileum (converted))
NC(N)=NCCC[C@H](NC(=O)[C@H](Cc1ccccc1)NC(=O)[C@@H]1CCCN1C(=O)[C@H](CO)NC(=O)[C@H](Cc1ccccc1)NC(=O)CNC(=O)[C@@H]1CCCN1C(=O)[C@@H]1CCCN1C(=O)[C@@H](N)CCCN=C(N)N)C(=O)O [BK, Arg^1 -Pro^2 -Pro^3 -Gly^4 -Phe^5 -Ser^6 -Pro^7 -Phe^8 -Arg^9] (H-RPPGFSPFR-OH)	0.4 nmol					
CC(C)C[C@H](NC(=O)[C@@H](Cc1ccccc1)NC(=O)[C@H](CSC1CC(=O)N(CCCCCCN2C(=O)CC(SC[C@H](NC(=O)[C@H](Cc3ccccc3)NC(=O)CNC(=O)[C@@H]3C[C@@H](O)CN3C(=O)[C@@H]3CCCN3C(=O)[C@H](CCCNC(=N)N)NC(=O)[C@H](N)CCCNC(=N)N)C(=O)N[C@H](Cc3ccccc3)C(=O)N[C@@H](CC(C)C)C(=O)N[C@@H](CCCNC(=N)N)C(=O)O)C2=O)C1=O)NC(=O)[C@H](Cc1ccccc1)NC(=O)CNC(=O)[C@@H]1C[C@@H](O)CN1C(=O)[C@@H]1CCCN1C(=O)[C@H](CCCNC(=N)N)NC(=O)[C@H](N)CCCNC(=N)N)C(=O)N[C@@H](CCCNC(=N)N)C(=O)O (stereo partly shown) [CP-0127] (HELM PEPTIDE1{[dR].R.P.[Hyp].G.F.C.[dF].L.R}|PEPTIDE2{[dR].R.P.[Hyp].G.F.C.[dF].L.R}|CHEM1{[O=C1CC([*:1])C(=O)N1CCCCCCN1C(=O)CC([*:2])C1=O]}$PEPTIDE1,CHEM1,7:R3-1:R1|PEPTIDE2,CHEM1,7:R3-1:R2$$$V2.0)		7.7	100%	50%	10%	
CC(C)C[C@H](NC(=O)[C@@H](Cc1ccccc1)NC(=O)[C@H](CO)NC(=O)[C@H](Cc1ccccc1)NC(=O)CNC(=O)[C@@H]1C[C@@H](O)CN1C(=O)[C@@H]1CCCN1C(=O)[C@H](CCCNC(=N)N)NC(=O)[C@H](N)CSC1CC(=O)N(CCCCCCN2C(=O)CC(SC[C@@H](N)C(=O)N[C@@H](CCCNC(=N)N)C(=O)N3CCC[C@H]3C(=O)N3C[C@H](O)C[C@H]3C(=O)NCC(=O)N[C@@H](Cc3ccccc3)C(=O)N[C@@H](CO)C(=O)N[C@H](Cc3ccccc3)C(=O)N[C@@H](CC(C)C)C(=O)N[C@@H](CCCNC(=N)N)C(=O)O)C2=O)C1=O)C(=O)N[C@@H](CCCNC(=N)N)C(=O)O (stereo partly shown) [CP-0161] (HELM PEPTIDE1{[dC].R.P.[Hyp].G.F.S.[dF].L.R}|PEPTIDE2{[dC].R.P.[Hyp].G.F.S.[dF].L.R}|CHEM1{[O=C1CC([*:1])C(=O)N1CCCCCCN1C(=O)CC([*:2])C1=O]}$PEPTIDE1,CHEM1,1:R3-1:R1|PEPTIDE2,CHEM1,1:R3-1:R2$$$V2.0)				100%		316 nM
